Numbered stars: 1 amine (or outer) side, 2 acyl side, 3 side chain; on linkers, the order of the positions; unused ones are H or OH. Side chains are listed from the residue outwards. Peptide text beside a SMILES is read from it. * marks the point of attachment. C20 diacid = O=C(O)CCCCCCCCCCCCCCCCCCC(=O)*; γGlu = O=C(O)[C@H](CCC(=O)[*:2])N[*:1]; C14 diacid = O=C(O)CCCCCCCCCCCCC(=O)*
How the values were obtained:
[1] = molecular target: T1, Amylin receptor AMY3; CALCR/RAMP3 (Homo sapiens, UniProt O60896+P30988); experiment: Agonist activity at human amylin receptor expressed in BHK570 cells co-expressing RAMP3 assessed as increase in intracellular cAMP concentration incubated for 3 hrs in presence of 10% FBS by CRE luciferase reporter gene assay; type: functional, cell-based
T1 sequence (P30988 whole entry): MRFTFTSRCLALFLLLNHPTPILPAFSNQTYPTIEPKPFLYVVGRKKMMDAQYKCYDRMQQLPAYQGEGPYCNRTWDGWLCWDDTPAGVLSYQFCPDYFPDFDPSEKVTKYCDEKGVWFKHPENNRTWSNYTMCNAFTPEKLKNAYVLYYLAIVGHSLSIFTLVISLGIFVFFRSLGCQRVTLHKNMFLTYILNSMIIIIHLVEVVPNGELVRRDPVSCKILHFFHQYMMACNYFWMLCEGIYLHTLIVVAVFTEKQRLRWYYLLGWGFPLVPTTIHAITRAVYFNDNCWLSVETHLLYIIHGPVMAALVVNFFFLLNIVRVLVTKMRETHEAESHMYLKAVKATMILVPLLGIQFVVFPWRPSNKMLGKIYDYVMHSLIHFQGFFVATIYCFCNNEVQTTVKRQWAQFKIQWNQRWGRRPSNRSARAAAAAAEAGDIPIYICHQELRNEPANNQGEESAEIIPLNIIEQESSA
T1 sequence (O60896 whole entry): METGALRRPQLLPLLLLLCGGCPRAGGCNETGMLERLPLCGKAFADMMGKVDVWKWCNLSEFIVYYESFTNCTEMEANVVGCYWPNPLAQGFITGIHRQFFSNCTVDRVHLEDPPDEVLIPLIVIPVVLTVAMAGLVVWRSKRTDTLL

[2] = Solubility in 100 mM bistrispropane buffer at pH 6.5 incubated for 18 hrs by UPLC analysis; type: physicochemical
[3] = Solubility in 100 mM bistrispropane buffer at pH 6.0 incubated for 18 hrs by UPLC analysis; type: physicochemical
[4] = Stability in pH 7.5 buffer assessed as lag time for fibril formation at 1 uM by Thioflavin T based fluorescence assay; type: physicochemical; conditions: pH 7.5, 1 µM
[5] = Solubility in 100 mM bistrispropane buffer at pH 7.0 incubated for 18 hrs by UPLC analysis; type: physicochemical
[6] = Stability in pH 7.5 buffer assessed as compound recovery at 1 uM by Thioflavin T based fluorescence assay; type: physicochemical; conditions: read-out: Drug recovery
[7] = Solubility in 100 mM bistrispropane buffer at pH 7.5 incubated for 18 hrs by UPLC analysis; type: physicochemical
Calcitonin receptor [8] = molecular target: T2, Calcitonin receptor (Homo sapiens, UniProt P30988); experiment: Agonist activity at human calcitonin receptor expressed in BHK570 cells assessed as increase in intracellular cAMP concentration incubated for 3 hrs in presence of 10% FBS by CRE luciferase reporter gene assay; type: functional, cell-based
T2 sequence (P30988 whole entry): T1 sequence (P30988 whole entry)

Rattus norvegicus [9] = experiment: Reduction in food intake in Sprague-Dawley rat at 3 nmol/kg measured 24 to 48 hrs post dose relative to control; type: functional; design: scale not given: the % may be the effect or the level left
Calcitonin receptor [10] = molecular target: T2, Calcitonin receptor; experiment: Agonist activity at human calcitonin receptor expressed in BHK570 cells assessed as increase in intracellular cAMP concentration incubated for 3 hrs in absence of albumin by CRE luciferase reporter gene assay; type: functional, cell-based
[11] = molecular target: T3, Amylin receptor AMY3; CALCR/RAMP3 (Rattus norvegicus, UniProt P32214+Q9JJ73); experiment: Displacement of [125I]-labeled rat amylin from rat amylin receptor expressed in BHK tkts13 cell membranes co-expressing RAMP3 incubated for 120 mins by scintillation proximity assay
T3 sequence (P32214 whole entry): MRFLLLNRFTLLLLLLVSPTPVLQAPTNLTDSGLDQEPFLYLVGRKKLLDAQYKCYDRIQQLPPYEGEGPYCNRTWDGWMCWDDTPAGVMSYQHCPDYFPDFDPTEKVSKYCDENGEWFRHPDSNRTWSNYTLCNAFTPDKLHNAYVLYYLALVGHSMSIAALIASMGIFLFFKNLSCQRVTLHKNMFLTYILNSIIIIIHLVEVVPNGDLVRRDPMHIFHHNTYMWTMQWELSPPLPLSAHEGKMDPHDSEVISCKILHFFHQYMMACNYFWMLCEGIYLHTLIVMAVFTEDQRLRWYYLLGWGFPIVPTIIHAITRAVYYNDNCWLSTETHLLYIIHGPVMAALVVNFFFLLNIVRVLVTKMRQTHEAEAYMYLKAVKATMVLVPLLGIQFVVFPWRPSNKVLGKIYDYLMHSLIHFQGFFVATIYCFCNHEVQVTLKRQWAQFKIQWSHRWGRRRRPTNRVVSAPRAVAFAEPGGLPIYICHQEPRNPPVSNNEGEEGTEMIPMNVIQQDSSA
T3 sequence (Q9JJ73 whole entry): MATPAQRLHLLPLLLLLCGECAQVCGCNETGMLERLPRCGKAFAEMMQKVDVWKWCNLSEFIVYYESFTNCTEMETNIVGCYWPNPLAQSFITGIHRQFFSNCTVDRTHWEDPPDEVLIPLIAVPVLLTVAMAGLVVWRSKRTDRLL

[12] = molecular target: T1, Amylin receptor AMY3; CALCR/RAMP3; experiment: Agonist activity at human amylin receptor expressed in BHK570 cells co-expressing RAMP3 assessed as increase in intracellular cAMP concentration incubated for 3 hrs in absence of albumin by CRE luciferase reporter gene assay; type: functional, cell-based
[13] = Solubility in 100 mM glycylglycine buffer at pH 4.0 incubated for 18 hrs by UPLC analysis; type: physicochemical
[14] = Solubility in 100 mM glycylglycine buffer at pH 3.0 incubated for 18 hrs by UPLC analysis; type: physicochemical
Rattus norvegicus [15] = experiment: Reduction in food intake in Sprague-Dawley rat at 3 nmol/kg measured 0 to 24 hrs post dose relative to control; type: functional; design: scale not given: the % may be the effect or the level left
[16] = molecular target: T1, Amylin receptor AMY3; CALCR/RAMP3; experiment: Displacement of [125I]-labeled rat amylin from human amylin receptor expressed in BHK tkts13 whole cells co-expressing RAMP3 incubated for 60 mins by scintillation proximity assay; type: cell-based
[17] = Solubility in 100 mM bistrispropane buffer at pH 8.0 incubated for 18 hrs by UPLC analysis; type: physicochemical
Calcitonin receptor [18] = molecular target: T2, Calcitonin receptor; experiment: Displacement of [125I]-labeled human calcitonin from human calcitonin receptor expressed in BHK tkts13 cell membranes incubated for 1 hr by scintillation proximity assay
[19] = Solubility in 100 mM glycylglycine buffer at pH 5.0 incubated for 18 hrs by UPLC analysis; type: physicochemical

EC50 [1] | solubility at 18 h [2] | solubility at 18 h [3] | Time [4] | solubility at 18 h [5] | remaining at 1 µM [6] | solubility at 18 h [7] | EC50 (Calcitonin receptor [8]) | EC50 (Calcitonin receptor [10]) | IC50 [11] | EC50 [12] | solubility at 18 h [13] | solubility at 18 h [14] | IC50 [16] | solubility at 18 h [17] | IC50 (Calcitonin receptor [18]) | solubility at 18 h [19] | Structure (SMILES) | Activity (Rattus norvegicus [9]) | Activity (Rattus norvegicus [15])
0.08 nM | ≥ 200 µM | ≥ 200 µM | > 45 h | ≥ 200 µM | 100% | ≥ 200 µM | 0.038 nM | 0.022 nM | 0.357 nM | 0.05 nM | ≥ 200 µM | ≥ 200 µM | 0.801 nM | ≥ 200 µM |  |  | CC(C)C[C@H](NC(=O)CNC(=O)[C@H](CO)NC(=O)[C@H](C)NC(=O)COCCOCCNC(=O)COCCOCCNC(=O)CC[C@H](NC(=O)CCCCCCCCCCCCCCCCC(=O)O)C(=O)O)C(=O)N[C@@H](CO)C(=O)N[C@H](C(=O)N[C@@H](C)C(=O)N[C@H](C(=O)N[C@@H](CC(C)C)C(=O)NCC(=O)N[C@@H](CCCNC(=N)N)C(=O)N[C@@H](CC(C)C)C(=O)N[C@@H](CO)C(=O)N[C@@H](CCC(N)=O)C(=O)N[C@@H](CCC(=O)O)C(=O)N[C@@H](CC(C)C)C(=O)N[C@@H](Cc1cnc[nH]1)C(=O)N[C@@H](CCC(=O)O)C(=O)N[C@@H](CC(C)C)C(=O)N[C@@H](CCC(N)=O)C(=O)N[C@H](C(=O)N[C@@H](Cc1ccc(O)cc1)C(=O)N1CCC[C@H]1C(=O)N[C@@H](CCCNC(=N)N)C(=O)N[C@H](C(=O)N[C@@H](CCC(=O)O)C(=O)N[C@H](C(=O)NCC(=O)N[C@@H](CO)C(=O)NCC(=O)N[C@H](C(=O)N[C@@H](Cc1ccc(O)cc1)C(N)=O)[C@@H](C)O)[C@@H](C)O)[C@@H](C)O)[C@@H](C)O)C(C)C)[C@@H](C)O | 0% | 0%
0.047 nM | ≥ 200 µM | ≥ 200 µM |  | ≥ 200 µM |  | ≥ 200 µM | 0.022 nM | 0.019 nM | 0.684 nM | 0.032 nM | ≥ 200 µM | ≥ 200 µM |  | ≥ 200 µM | 0.077 nM | ≥ 200 µM | CC(=O)N[C@@H](C)C(=O)N[C@@H](CO)C(=O)N[C@@H](CCC(=O)O)C(=O)N[C@@H](CC(C)C)C(=O)N[C@@H](CO)C(=O)N[C@H](C(=O)N[C@@H](C)C(=O)N[C@@H](C)C(=O)N[C@@H](CC(C)C)C(=O)NCC(=O)N[C@@H](CCCNC(=N)N)C(=O)N[C@@H](CC(C)C)C(=O)N[C@@H](CO)C(=O)N[C@@H](C)C(=O)N[C@@H](CCC(=O)O)C(=O)N[C@@H](CC(C)C)C(=O)N[C@@H](Cc1cnc[nH]1)C(=O)N[C@@H](CCCCNC(=O)CC[C@H](NC(=O)CCCCCCCCCCCCCCCCCCC(=O)O)C(=O)O)C(=O)N[C@@H](CC(C)C)C(=O)N[C@@H](C)C(=O)N[C@H](C(=O)N[C@@H](CC(C)C)C(=O)N1CCC[C@H]1C(=O)N[C@@H](CCCNC(=N)N)C(=O)N[C@H](C(=O)N[C@@H](CCC(=O)O)C(=O)N[C@H](C(=O)NCC(=O)N[C@@H](CO)C(=O)NCC(=O)N[C@@H](CO)C(=O)N1CCC[C@H]1C(N)=O)[C@@H](C)O)[C@@H](C)O)[C@@H](C)O)[C@@H](C)O (Ac-ASELSTAALGRLSAELHK([γGlu-C20 diacid])LATLPRTETGSGSP-NH2) |  | 
0.006 nM | ≥ 200 µM | ≥ 200 µM |  | ≥ 200 µM |  | ≥ 200 µM | 0.004 nM | 0.005 nM |  | 0.007 nM | ≥ 200 µM | ≥ 200 µM |  | ≥ 200 µM | 0.14 nM | ≥ 200 µM | CC(C)C[C@H](NC(=O)[C@H](C)NC(=O)[C@H](C)NC(=O)[C@@H](NC(=O)[C@H](CO)NC(=O)[C@H](CC(C)C)NC(=O)[C@H](CCC(=O)O)NC(=O)[C@H](CO)NC(=O)[C@H](C)NC(=O)CCCCCCCCCCCCC(=O)O)[C@@H](C)O)C(=O)NCC(=O)N[C@@H](CCCNC(=N)N)C(=O)N[C@@H](CC(C)C)C(=O)N[C@@H](CO)C(=O)N[C@@H](C)C(=O)N[C@@H](CCC(=O)O)C(=O)N[C@@H](CC(C)C)C(=O)N[C@@H](Cc1cnc[nH]1)C(=O)N[C@@H](CCC(=O)O)C(=O)N[C@@H](CC(C)C)C(=O)N[C@@H](C)C(=O)N[C@H](C(=O)N[C@@H](CC(C)C)C(=O)N1CCC[C@H]1C(=O)N[C@@H](CCCNC(=N)N)C(=O)N[C@H](C(=O)N[C@@H](CCC(=O)O)C(=O)N[C@H](C(=O)NCC(=O)N[C@@H](CO)C(=O)NCC(=O)N[C@@H](CO)C(=O)N1CCC[C@H]1C(N)=O)[C@@H](C)O)[C@@H](C)O)[C@@H](C)O ({C14 diacid}-ASELSTAALGRLSAELHELATLPRTETGSGSP-NH2) |  | 
 | ≥ 200 µM | ≥ 200 µM |  | ≥ 200 µM |  | ≥ 200 µM | 0.077 nM | 0.019 nM | 0.098 nM | 0.023 nM |  | ≥ 200 µM | 0.116 nM | ≥ 200 µM | 0.053 nM | ≥ 200 µM | CC(C)C[C@H](NC(=O)CNC(=O)[C@H](CO)NC(=O)[C@H](C)NC(=O)CC[C@H](NC(=O)CCCCCCCCCCCCCCCCCCC(=O)O)C(=O)O)C(=O)N[C@@H](CO)C(=O)N[C@H](C(=O)N[C@@H](C)C(=O)N[C@H](C(=O)N[C@@H](CC(C)C)C(=O)NCC(=O)N[C@@H](CCCNC(=N)N)C(=O)N[C@@H](CC(C)C)C(=O)N[C@@H](CO)C(=O)N[C@@H](CCC(N)=O)C(=O)N[C@@H](CCC(=O)O)C(=O)N[C@@H](CC(C)C)C(=O)N[C@@H](Cc1cnc[nH]1)C(=O)N[C@@H](CCC(=O)O)C(=O)N[C@@H](CC(C)C)C(=O)N[C@@H](CCC(N)=O)C(=O)N[C@H](C(=O)N[C@@H](Cc1ccc(O)cc1)C(=O)N1CCC[C@H]1C(=O)N1CCC[C@H]1C(=O)N[C@H](C(=O)N[C@@H](CCC(=O)O)C(=O)N[C@H](C(=O)NCC(=O)N[C@@H](CO)C(=O)NCC(=O)N[C@H](C(=O)N[C@@H](Cc1ccc(O)cc1)C(N)=O)[C@@H](C)O)[C@@H](C)O)[C@@H](C)O)[C@@H](C)O)[C@@H](C)O)[C@@H](C)O ({C20 diacid-γGlu}-ASGLSTATLGRLSQELHELQTYPPTETGSGTY-NH2) |  | 
